Reference: ChEMBL document CHEMBL6074667, “Discovery and Optimization of First-in-Class Molecular Glue Degraders of the WIZ Transcription Factor for Fetal Hemoglobin Induction to Treat Sickle Cell Disease” (J Med Chem, 2024)
Values after ≈ are worked out from the molar mass of the structure shown.

Columns and labels:
[1] = biological target: T1, Protein cereblon/Protein Wiz (Homo sapiens, UniProt Q96SW2+O95785); assay: Molecular glue activity at CRBN/HiBiT-tagged WIZ (unknown origin) expressed in HEK293T cells assessed as induction of WIZ degradation incubated for 18 hrs by Nano-Glo HiBiT-Lytic reagent based luminescence plate reader analysis relative to control; format: cell-based; parameters: concentration or dose not given beside the values
[2] = biological target: T2, Protein cereblon/Sal-like protein 4 (Homo sapiens, UniProt Q96SW2+Q9UJQ4); assay: Molecular glue activity at CRBN/HiBiT-tagged SALL4 (unknown origin) expressed in human GripTite 293 MSR cells assessed as induction of SALL4 degradation incubated for 20 hrs by Nano-Glo HiBiT-Lytic reagent based luminescence plate reader analysis relative to control; format: cell-based; parameters: concentration or dose not given beside the values
[3] = biological target: T3, Cereblon/Ikaros (Homo sapiens, UniProt Q96SW2+Q13422); assay: Molecular glue activity at CRBN/HiBiT-tagged IKZF1 (unknown origin) expressed in human GripTite 293 MSR cells assessed as induction of […] incubated for 20 hrs by Nano-Glo HiBiT-Lytic reagent based luminescence plate reader analysis relative to control; format: cell-based; parameters: concentration or dose not given beside the values
[4] = biological target: T4, Protein cereblon/Eukaryotic peptide chain release factor GTP-binding subunit ERF3A (Homo sapiens, UniProt Q96SW2+P15170); assay: Molecular glue activity at CRBN/HiBiT-tagged GSPT1 (unknown origin) expressed in human GripTite 293 MSR cells assessed as induction of GSPT1 degradation incubated for 20 hrs by Nano-Glo HiBiT-Lytic reagent based luminescence plate reader analysis relative to control; format: cell-based; parameters: concentration or dose not given beside the values
Target sequence in this assay (P15170 whole entry, looked up): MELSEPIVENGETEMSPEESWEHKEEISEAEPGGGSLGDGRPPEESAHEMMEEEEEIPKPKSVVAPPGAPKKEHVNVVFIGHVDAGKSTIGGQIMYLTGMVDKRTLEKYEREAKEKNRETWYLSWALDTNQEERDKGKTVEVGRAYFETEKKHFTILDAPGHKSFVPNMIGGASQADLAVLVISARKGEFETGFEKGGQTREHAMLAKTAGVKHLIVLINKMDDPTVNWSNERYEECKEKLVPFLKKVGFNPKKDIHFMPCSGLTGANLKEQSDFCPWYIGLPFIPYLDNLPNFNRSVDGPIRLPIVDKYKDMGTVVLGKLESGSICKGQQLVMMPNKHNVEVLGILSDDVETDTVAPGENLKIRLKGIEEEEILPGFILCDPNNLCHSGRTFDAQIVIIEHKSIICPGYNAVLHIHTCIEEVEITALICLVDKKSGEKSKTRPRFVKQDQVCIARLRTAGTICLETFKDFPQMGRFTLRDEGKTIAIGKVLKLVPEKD
Target sequence in this assay (Q96SW2 whole entry, looked up): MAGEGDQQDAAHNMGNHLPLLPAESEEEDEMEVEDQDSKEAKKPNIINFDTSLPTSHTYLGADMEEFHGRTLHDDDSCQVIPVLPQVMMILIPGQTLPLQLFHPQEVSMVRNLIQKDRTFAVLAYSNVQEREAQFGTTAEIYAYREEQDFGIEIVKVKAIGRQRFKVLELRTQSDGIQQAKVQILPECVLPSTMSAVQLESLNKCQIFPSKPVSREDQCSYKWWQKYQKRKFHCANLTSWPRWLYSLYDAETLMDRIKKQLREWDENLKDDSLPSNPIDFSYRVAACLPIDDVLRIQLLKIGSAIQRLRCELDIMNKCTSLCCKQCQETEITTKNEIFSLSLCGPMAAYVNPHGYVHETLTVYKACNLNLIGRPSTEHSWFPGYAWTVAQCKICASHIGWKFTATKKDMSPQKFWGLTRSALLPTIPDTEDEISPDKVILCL

[5] = biological target: T2, Protein cereblon/Sal-like protein 4; assay: Molecular glue activity at CRBN/HiBiT-tagged SALL4 (unknown origin) expressed in human GripTite 293 MSR cells assessed as induction of SALL4 degradation incubated for 20 hrs by Nano-Glo HiBiT-Lytic reagent based luminescence plate reader analysis; format: cell-based
[6] = biological target: T4, Protein cereblon/Eukaryotic peptide chain release factor GTP-binding subunit ERF3A; assay: Molecular glue activity at CRBN/HiBiT-tagged GSPT1 (unknown origin) expressed in human GripTite 293 MSR cells assessed as induction of GSPT1 degradation incubated for 20 hrs by Nano-Glo HiBiT-Lytic reagent based luminescence plate reader analysis; format: cell-based
Target sequence in this assay (Q96SW2 whole entry): as the sequence (Q96SW2 whole entry, looked up) above
Target sequence in this assay (P15170 whole entry): as the sequence (P15170 whole entry, looked up) above

[7] = biological target: T3, Cereblon/Ikaros; assay: Molecular glue activity at CRBN/HiBiT-tagged IKZF1 (unknown origin) expressed in human GripTite 293 MSR cells assessed as induction of […] incubated for 20 hrs by Nano-Glo HiBiT-Lytic reagent based luminescence plate reader analysis; format: cell-based
[8] = biological target: T1, Protein cereblon/Protein Wiz; assay: Molecular glue activity at CRBN/HiBiT-tagged WIZ (unknown origin) expressed in HEK293T cells assessed as induction of WIZ degradation incubated for 18 hrs by Nano-Glo HiBiT-Lytic reagent based luminescence plate reader analysis; format: cell-based
Target sequence in this assay (Q96SW2 whole entry): as the sequence (Q96SW2 whole entry, looked up) above
Target sequence in this assay (O95785 whole entry): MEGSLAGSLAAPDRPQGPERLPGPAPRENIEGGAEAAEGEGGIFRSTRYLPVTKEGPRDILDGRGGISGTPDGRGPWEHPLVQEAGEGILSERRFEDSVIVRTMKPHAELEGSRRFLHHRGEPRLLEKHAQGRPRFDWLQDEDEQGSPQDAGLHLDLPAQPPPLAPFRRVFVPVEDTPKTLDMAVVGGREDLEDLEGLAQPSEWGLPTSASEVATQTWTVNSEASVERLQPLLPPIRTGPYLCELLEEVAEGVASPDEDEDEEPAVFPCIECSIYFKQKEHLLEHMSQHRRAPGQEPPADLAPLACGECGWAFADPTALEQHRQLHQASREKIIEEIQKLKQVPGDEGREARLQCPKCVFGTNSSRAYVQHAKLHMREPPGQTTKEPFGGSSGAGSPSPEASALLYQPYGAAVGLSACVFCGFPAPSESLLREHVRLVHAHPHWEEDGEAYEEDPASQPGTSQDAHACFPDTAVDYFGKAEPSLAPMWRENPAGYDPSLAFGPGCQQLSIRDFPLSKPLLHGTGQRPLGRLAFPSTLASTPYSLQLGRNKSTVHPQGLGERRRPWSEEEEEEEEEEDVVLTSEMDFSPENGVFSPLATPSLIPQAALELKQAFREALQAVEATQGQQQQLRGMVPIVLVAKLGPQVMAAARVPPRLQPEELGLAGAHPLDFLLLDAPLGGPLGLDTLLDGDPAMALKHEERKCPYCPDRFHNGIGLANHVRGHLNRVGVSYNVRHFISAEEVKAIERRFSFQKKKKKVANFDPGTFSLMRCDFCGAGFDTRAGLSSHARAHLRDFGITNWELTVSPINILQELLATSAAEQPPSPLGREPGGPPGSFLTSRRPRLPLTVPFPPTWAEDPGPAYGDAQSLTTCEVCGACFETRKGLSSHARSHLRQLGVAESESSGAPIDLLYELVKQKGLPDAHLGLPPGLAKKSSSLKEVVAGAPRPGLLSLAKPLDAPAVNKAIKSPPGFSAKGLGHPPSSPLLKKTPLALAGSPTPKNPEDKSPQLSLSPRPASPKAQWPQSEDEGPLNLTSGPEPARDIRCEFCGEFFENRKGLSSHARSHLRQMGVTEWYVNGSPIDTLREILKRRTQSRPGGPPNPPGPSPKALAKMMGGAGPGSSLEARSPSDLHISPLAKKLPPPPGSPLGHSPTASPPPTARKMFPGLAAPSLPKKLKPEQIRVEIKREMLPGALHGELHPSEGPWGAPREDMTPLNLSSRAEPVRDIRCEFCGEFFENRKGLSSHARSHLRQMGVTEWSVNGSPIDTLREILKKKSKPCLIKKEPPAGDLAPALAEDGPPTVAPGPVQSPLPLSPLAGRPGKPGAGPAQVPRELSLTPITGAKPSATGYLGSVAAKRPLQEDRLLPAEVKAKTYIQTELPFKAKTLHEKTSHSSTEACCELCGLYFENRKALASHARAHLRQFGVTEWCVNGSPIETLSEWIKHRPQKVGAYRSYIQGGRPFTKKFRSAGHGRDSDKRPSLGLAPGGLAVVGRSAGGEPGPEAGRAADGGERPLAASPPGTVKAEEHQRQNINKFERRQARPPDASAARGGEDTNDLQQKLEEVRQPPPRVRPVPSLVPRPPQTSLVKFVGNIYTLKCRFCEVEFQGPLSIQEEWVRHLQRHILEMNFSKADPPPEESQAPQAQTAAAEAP

[9] = Intrinsic clearance in mouse liver microsomes; format: ADME, Microsome; details: read-out: CLH
[10] = biological target: T1, Protein cereblon/Protein Wiz; assay: Molecular glue activity at CRBN/WIZ in human CD34-positive derived primary erythroblast cells assessed as induction of WIZ degradation by measuring maximal efficacy measured after 24 hrs by flow cytometric analysis relative to control; format: cell-based
[11] = Cmax in C57BL/6 mouse at 3 mg/kg, po; format: ADME, organism-based; details: in vivo
[12] = Tmax in C57BL/6 mouse at 3 mg/kg, po or 1 mg/kg, iv; format: ADME, organism-based; details: in vivo
[13] = Bioavailability last in C57BL/6 mouse; format: ADME, organism-based; details: in vivo
[14] = AUClast in C57BL/6 mouse at 3 mg/kg, po; format: ADME, organism-based; details: in vivo
[15] = Protein binding in human plasma; format: ADME, cell-free; details: read-out: PPB (converted)
[16] = biological target: T1, Protein cereblon/Protein Wiz; assay: In vivo molecular glue activity at CRBN/WIZ in immunocompromised naive NBSGW mouse xenografted with human CD34 positive HSPC cells assessed as induction of WIZ degradation in peripheral blood human C19-positive B cells by measuring maximal efficacy at 1 to 10 mg/kg, po administered once daily for 21 days by staining based analysis relative to control; format: functional, organism-based; details: dose 1-10 mg/kg, time 21.0 day
[17] = Volume of distribution at steady state in C57BL/6 mouse at 1 mg/kg, iv; format: ADME, organism-based; details: in vivo, read-out: Vdss
[18] = biological target: T1, Protein cereblon/Protein Wiz; assay: In vivo molecular glue activity at CRBN/WIZ in immunocompromised naive NBSGW mouse xenografted with human CD34 positive HSPC cells assessed as fold increase in Hbf-positive cells in moCD45 negative hCD45negative CD71positive CD235A positive bone marrow cells at 1 to 10 mg/kg, po administered once daily for 21 days by staining based analysis; format: functional, organism-based; details: dose 1-10 mg/kg, time 21.0 day
[19] = biological target: T1, Protein cereblon/Protein Wiz; assay: In vivo molecular glue activity at CRBN/WIZ in immunocompromised naive NBSGW mouse xenografted with human CD34 positive HSPC cells assessed as induction of WIZ degradation in peripheral blood human […] B cells administered orally once daily for 21 days by staining based analysis; format: functional, organism-based; details: route po, time 21.0 day
[20] = Half-life in C57BL/6 mouse at 1 mg/kg, iv; format: ADME, organism-based; details: in vivo
[21] = Clearance in C57BL/6 mouse at 1 mg/kg, iv; format: ADME, organism-based; details: in vivo
[22] = Apparent permeability across apical to basolateral side in low efflux MDCK cells assessed as drug recovery at 10 uM incubated for 2 hrs by LC-MS analysis; format: ADME, cell-based, Canis lupus familiaris; details: dog, read-out: Drug recovery
[23] = Protein binding in rat plasma; format: ADME, cell-free; details: read-out: PPB (converted)
[24] = Intrinsic clearance in human liver microsomes; format: ADME, Microsome; details: read-out: CLH
[25] = Toxicity in immunocompromised naive NBSGW mouse xenografted with human CD34 positive HSPC cells assessed as effect on body weight at 1 to 10 mg/kg, po administered once daily for 21 days; format: organism-based; details: in vivo, 504 h, dose 1-10 mg/kg, time 21 day
[26] = biological target: T1, Protein cereblon/Protein Wiz; assay: Molecular glue activity at CRBN/WIZ in human CD34-positive derived primary erythroblast cells assessed as increase in fetal hemoglobin positive cells in CD71+ CD235a+ subpopulation measured after 7 days by flow cytometric analysis relative to control; format: cell-based; details: time 7.0 day
[27] = Apparent permeability across apical to basolateral side in low efflux MDCK cells at 10 uM incubated for 2 hrs by LC-MS analysis; format: ADME, cell-based, Canis lupus familiaris; details: dog
[28] = Solubility of compound in potassium phosphate buffer at pH 6.8 incubated for 16 to 24 hrs by high-throughput Agilent Rapidfire-MS/MS analysis; format: physicochemical; details: time 16-24 hrs
[29] = Protein binding in mouse plasma; format: ADME, cell-free; details: read-out: PPB (converted)
[30] = Intrinsic clearance in rat liver microsomes; format: ADME, Microsome; details: read-out: CLH
[31] = biological target: T1, Protein cereblon/Protein Wiz; assay: Molecular glue activity at CRBN/WIZ in human CD34-positive derived primary erythroblast cells assessed as induction of WIZ degradation measured after 24 hrs by flow cytometric analysis; format: cell-based
Target sequence in this assay (Q96SW2 whole entry): as the sequence (Q96SW2 whole entry, looked up) above
Target sequence in this assay (O95785 whole entry): as the sequence (O95785 whole entry) above

[32] = biological target: Protein cereblon/Protein Wiz (Homo sapiens, UniProt O95785+Q96SW2); assay: Molecular glue activity at CRBN/WIZ in human CD34-positive derived primary erythroblast cells assessed as increase in fetal hemoglobin positive cells in CD71+ CD235a+ subpopulation measured after 7 days by flow cytometric analysis; format: cell-based
[33] = Toxicity in immunocompromised naive NBSGW mouse xenografted with human CD34 positive HSPC cells assessed as effect on body weight at 0.01 to 1 mg/kg, po administered once daily for 21 days; format: organism-based; details: in vivo, 504 h, dose 0.01-1 mg/kg, time 21 day

T3 sequence (Q96SW2 whole entry): as the sequence (Q96SW2 whole entry, looked up) above
T3 sequence (Q13422 whole entry): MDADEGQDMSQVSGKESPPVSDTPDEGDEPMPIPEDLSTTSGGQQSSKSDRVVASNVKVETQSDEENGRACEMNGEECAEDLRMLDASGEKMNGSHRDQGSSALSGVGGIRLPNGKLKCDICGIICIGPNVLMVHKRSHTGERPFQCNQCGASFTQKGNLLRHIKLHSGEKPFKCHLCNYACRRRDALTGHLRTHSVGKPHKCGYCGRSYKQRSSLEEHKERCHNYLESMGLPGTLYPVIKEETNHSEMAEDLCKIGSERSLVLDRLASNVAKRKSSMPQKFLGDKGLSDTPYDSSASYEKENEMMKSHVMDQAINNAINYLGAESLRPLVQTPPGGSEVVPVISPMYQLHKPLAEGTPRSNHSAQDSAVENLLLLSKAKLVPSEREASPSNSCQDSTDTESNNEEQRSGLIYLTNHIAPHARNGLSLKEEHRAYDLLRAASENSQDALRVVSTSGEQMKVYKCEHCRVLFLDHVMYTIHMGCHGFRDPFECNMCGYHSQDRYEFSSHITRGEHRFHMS

SMILES	Activity [1]	Activity [2]	Activity [3]	Activity [4]	DC50 [5]	DC50 [6]	DC50 [7]	DC50 [8]	microsomal CLint [9]	Cmax [11]	Tmax [12]	bioavailability [13]	AUC(0-t) [14]	fraction unbound [15]	Vd [17]	half-life [20]	clearance [21]	recovery at 2 h, 10 µM [22]	fraction unbound [23]	microsomal CLint [24]	further results
CCN1CCC[C@H](Oc2ccc3c(c2)CN(C2CCC(=O)NC2=O)C3=O)C1 (stereo partly specified)	12%	27%	< 10%	< 10%	> 50 µM	> 50 µM	> 50 µM	> 25 µM	–	–	–	–	–	–	–	–	–	–	–	–	–
CCN1CCC2(CC2)[C@@H](Oc2ccc3c(c2)CN(C2CCC(=O)NC2=O)C3=O)C1 (stereo partly specified)	82%	11%	< 10%	< 10%	> 50 µM	> 50 µM	> 50 µM	0.008 µM	–	–	–	–	–	–	–	–	–	–	–	–	–
CCN1CCCC[C@@H]1COc1ccc2c(c1)CN(C1CCC(=O)NC1=O)C2=O (stereo partly specified)	82%	50%	< 10%	< 10%	3.8 µM	> 50 µM	> 50 µM	–	< 25 µL/min/mg	157 nM	2.3 h	13%	0.713 µM·h	> 0.8	2.2 L/kg	1.7 h	22 mL/min/kg	95%	> 0.8	< 25 µL/min/mg	Emax [10]: 74%; Emax [16]: 63%; fold change (FC) [18]: 5; Activity [19]: Dose-dependent-effect; Activity [25]: Non-toxic; Activity [26]: 20%; Papp A→B at 2 h, 10 µM [27]: 1.1 ×10⁻⁶ cm/s; solubility [28]: 450 µM (≈ 173 µg/mL); fraction unbound [29]: > 0.8; microsomal CLint [30]: < 25 µL/min/mg
CCN1CCC[C@@H](Oc2ccc3c(c2)CN(C2CCC(=O)NC2=O)C3=O)C1 (stereo partly specified)	77%	28%	< 10%	< 10%	> 50 µM	> 50 µM	> 50 µM	0.026 µM	–	–	–	–	–	–	–	–	–	–	–	–	–

Now from value to molecule, other results behind:

Activity [1]	Activity [2]	Activity [3]	Activity [4]	DC50 [5]	DC50 [6]	DC50 [7]	DC50 [8]	microsomal CLint [9]	Cmax [11]	Tmax [12]	bioavailability [13]	AUC(0-t) [14]	fraction unbound [15]	Vd [17]	half-life [20]	clearance [21]	recovery at 2 h, 10 µM [22]	fraction unbound [23]	microsomal CLint [24]	SMILES	further results
42%	32%	< 10%	< 10%	> 50 µM	> 50 µM	> 50 µM	> 25 µM	–	–	–	–	–	–	–	–	–	–	–	–	CCN1C[C@@H](C)C[C@@H](Oc2ccc3c(c2)CN(C2CCC(=O)NC2=O)C3=O)C1 (mixture of isomers)	–
–	–	–	–	–	–	–	0.003 µM	< 10 µL/min/mg	224 nM	1.7 h	23%	1.12 µM·h	0.76	2.8 L/kg	2.2 h	29 mL/min/kg	84%	> 0.8	< 10 µL/min/mg	CCN1C[C@H](C)C[C@@H](Oc2ccc3c(c2)CN(C2CCC(=O)NC2=O)C3=O)C1 (stereo in doubt; 10)	DC50 [31]: 0.002 µM; EC50 [32]: 0.04 µM; Activity [33]: Non-toxic; Papp A→B at 2 h, 10 µM [27]: 0.5 ×10⁻⁶ cm/s; solubility [28]: 380 µM (≈ 146 µg/mL); fraction unbound [29]: > 0.8; microsomal CLint [30]: < 10 µL/min/mg
